The values below come from US20230019491A1, “PYRIMIDINE TBK/IKKe INHIBITOR COMPOUNDS AND USES THEREOF” (Merck Patent GmbH, priority 2017, published 2023).

The target of one assay is T1, IKKε (Homo sapiens, UniProt Q14164).
T1 sequence (Q14164 1-716): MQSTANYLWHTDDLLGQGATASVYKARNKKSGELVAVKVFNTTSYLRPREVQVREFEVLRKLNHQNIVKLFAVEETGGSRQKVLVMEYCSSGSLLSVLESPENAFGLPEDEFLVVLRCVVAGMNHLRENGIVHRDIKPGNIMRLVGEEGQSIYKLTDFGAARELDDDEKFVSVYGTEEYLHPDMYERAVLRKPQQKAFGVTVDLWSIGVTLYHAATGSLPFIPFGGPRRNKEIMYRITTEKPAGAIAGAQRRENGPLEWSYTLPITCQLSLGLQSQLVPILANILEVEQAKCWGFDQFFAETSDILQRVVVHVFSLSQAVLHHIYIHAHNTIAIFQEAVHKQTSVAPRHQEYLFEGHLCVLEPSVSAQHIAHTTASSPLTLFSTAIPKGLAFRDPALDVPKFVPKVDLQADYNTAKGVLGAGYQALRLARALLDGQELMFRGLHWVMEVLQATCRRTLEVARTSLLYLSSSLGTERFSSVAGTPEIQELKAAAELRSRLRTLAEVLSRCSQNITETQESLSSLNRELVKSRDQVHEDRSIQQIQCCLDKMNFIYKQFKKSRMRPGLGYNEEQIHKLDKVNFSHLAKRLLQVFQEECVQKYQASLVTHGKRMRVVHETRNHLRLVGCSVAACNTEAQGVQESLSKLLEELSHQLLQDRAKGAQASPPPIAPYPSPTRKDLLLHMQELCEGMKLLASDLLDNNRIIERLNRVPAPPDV
The experiment in a line: IKKε biochemical assay. Conditions: 10 point 1:4 dose response, 30 uM top concentration, 90 min at 25° C., LabChip EZ Reader II; read-out: IKKε_IC50. As to the method: (§1) Test compounds were transferred into Labcyte polypropylene 384 well plates (P055-25) and diluted to 3 mM using DMSO. […] 100 uM of a reference compound (1 uM final high concentration). Backfilling was performed if necessary so that all wells contain 1% DMSO final:
add 75 nl DMSO/well into columns 1, 2 and 24 using Labcyte Echo. add 75 nl 1.0 mM staurosporine/well into column 23 using Labcyte Echo (10 uM final) add 4.5 ul enzyme/well using multidrop dispenser add 3 ul substrate/well using multidrop dispenser incubate at 25° C. for 90 min. add 7.5 ul 2× stop buffer read on labchip ez reader II using IKKε.
(§2) Raw data files were opened in the Caliper LabChip Reviewer program (Version 3.0.265.0 SP2) and peak assignments were adjusted to reflect “substrate first” with the software's post-run analysis options. A spline-fit baseline was applied using the software's analysis algorithm.

For a further assay, the target named is T2, TBK1 (Homo sapiens, UniProt Q9UHD2).
T2 sequence (Q9UHD2 1-729): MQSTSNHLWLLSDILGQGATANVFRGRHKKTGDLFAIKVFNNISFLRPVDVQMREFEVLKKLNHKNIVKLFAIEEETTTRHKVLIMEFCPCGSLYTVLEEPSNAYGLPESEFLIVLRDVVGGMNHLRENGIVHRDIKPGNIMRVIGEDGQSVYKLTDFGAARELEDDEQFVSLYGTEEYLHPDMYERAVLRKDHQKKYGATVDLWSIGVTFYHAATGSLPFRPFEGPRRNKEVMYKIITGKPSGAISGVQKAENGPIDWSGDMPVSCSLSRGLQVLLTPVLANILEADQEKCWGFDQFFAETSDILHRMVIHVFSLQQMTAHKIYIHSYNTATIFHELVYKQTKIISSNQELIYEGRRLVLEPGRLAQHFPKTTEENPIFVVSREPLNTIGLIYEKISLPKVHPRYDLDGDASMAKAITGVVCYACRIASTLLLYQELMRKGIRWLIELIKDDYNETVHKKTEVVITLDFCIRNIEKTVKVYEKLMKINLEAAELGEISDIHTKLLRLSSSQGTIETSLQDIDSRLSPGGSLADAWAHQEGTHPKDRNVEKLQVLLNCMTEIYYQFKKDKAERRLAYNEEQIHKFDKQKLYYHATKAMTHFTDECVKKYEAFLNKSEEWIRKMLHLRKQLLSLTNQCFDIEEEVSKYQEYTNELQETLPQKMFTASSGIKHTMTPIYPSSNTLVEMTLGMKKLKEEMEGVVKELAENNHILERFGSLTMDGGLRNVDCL
Briefly: TBK biochemical assay. The note with it: 10 point 1:4 dose response, 30 uM top concentration, 90 min at 25° C., LabChip EZ Reader II; read-out: TBK1_IC50. As to the method:
as §1
add 75 nl DMSO/well into columns 1, 2 and 24 using Labcyte Echo. add 75 nl 1.0 mM staurosporine/well into column 23 using Labcyte Echo ([…]) add 4.5 ul enzyme/well using multidrop dispenser add 3 ul substrate/well using multidrop dispenser incubate at 25° C. in Heidolph incubator for 90 min. add 7.5 ul 2× stop buffer using multidrop dispenser read on labchip ez reader II using TBK1.job
as §2

In the case of `COc1nc(Nc2ncc(F)c(-c3ccc(O[C@@H]4CCN(C(=O)[C@H](C)O)CC4(F)F)c(C#N)c3)n2)ccc1N1CCN(C2COC2)CC1` [Example 289, 2-[[(4R)-3,3-difluoro-1-[(2S)-2-hydroxypropanoyl]piperidin-4-yl]oxy]-5-[5-fluoro-2-([6-methoxy-5-[4-(oxetan-3-yl)piperazin-1-yl]pyridin-2-yl]amino)pyrimidin-4-yl]benzonitrile], the IC50 at IKKε and on TBK1 was less than 100 nM each time.

With `C[C@H](O)C(=O)N1CCC(Oc2ccc(-c3ccnc(Nc4ccncc4)n3)cc2C#N)C(F)(F)C1` (stereo partly drawn) [Example 207, 2-([3,3-difluoro-1-[(2S)-2-hydroxypropanoyl]piperidin-4-yl]oxy)-5-[2-[(pyridin-4-yl)amino]pyrimidin-4-yl]benzonitrile], the IC50 on IKKε and at TBK1 was less than 100 nM throughout.

In the case of `CCOc1nc(Nc2nccc(-c3ccc(OC4CCN(C(=O)[C@H](C)O)CC4(F)F)c(C#N)c3)n2)ccc1N1CCN(C2COC2)CC1` (stereo partly drawn) [Example 249, 2-([33-difluoro-1-[(2S)-2-hydroxypropanoyl]piperidin-4-yl]oxy)-5-[2-([6-ethoxy-5-[4-(oxetan-3-yl)piperazin-1-yl]pyridin-2-yl]amino)pyrimidin-4-yl]benzonitrile], the IC50 on IKKε and on TBK1 was less than 100 nM in each case.

As to `COc1nc(Nc2nccc(-c3ccc(NC4CCOCC4)c(C#N)c3)n2)ccc1C(=O)N(C)C` [Example 63, 6-[(4-[3-cyano-4-[(oxan-4-yl)amino]phenyl]pyrimidin-2-yl)amino]-2-methoxy-N,N-dimethylpyridine-3-carboxamide], the IC50 at IKKε and on TBK1 was less than 100 nM in each case.

With `COc1nc(Nc2nccc(-c3ccc(OC4CCN(C(=O)c5n[nH]c(C)n5)CC4)c(C#N)c3)n2)ccc1N1CCN(C)CC1` [Example 94, 5-(2-[[6-methoxy-5-(4-methylpiperazin-1-yl)pyridin-2-yl]amino]pyrimidin-4-yl)-2-([1-[(5-methyl-1H-1,2,4-triazol-3-yl)carbonyl]piperidin-4-yl]oxy)benzonitrile], the IC50 at IKKε and at TBK1 was less than 100 nM throughout.

Regarding `C[C@@H](O)C(=O)N1CCC(Oc2ccc(-c3ccnc(Nc4ccncc4)n3)cc2C#N)C(F)(F)C1` (stereo partly drawn) [Example 208, 2-([3,3-difluoro-1-[(2R)-2-hydroxypropanoyl]piperidin-4-yl]oxy)-5-[2-[(pyridin-4-yl)amino]pyrimidin-4-yl]benzonitrile], the IC50 at IKKε and on TBK1 was less than 100 nM in each case.

Take `COc1nc(Nc2nccc(-c3ccc(OC4CCOCC4)c(C#N)n3)n2)ccc1C(=O)N1CCCCC1` [Example 30, 6-[2-([6-methoxy-5-[(piperidin-1-yl)carbonyl]pyridin-2-yl]amino)pyrimidin-4-yl]-3-(oxan-4-yloxy)pyridine-2-carbonitrile]: the IC50 at IKKε and at TBK1 was less than 100 nM in each case.

On to `COc1nc(Nc2nccc(-c3ccc(OC4CCOCC4)c(C#N)c3)n2)ccc1C1CCN(C)CC1F` (stereo not drawn) [Example 43, 5-(2-[[5-(3-fluoro-1-methylpiperidin-4-yl)-6-methoxypyridin-2-yl]amino]pyrimidin-4-yl)-2-(oxan-4-yloxy)benzonitrile], for which the IC50 at IKKε and at TBK1 was less than 100 nM in each case.

For `COc1nc(Nc2nccc(-c3ccc(OC4(C)CCN(C(=O)[C@@H](O)CO)CC4(F)F)c(C#N)c3)n2)ccc1N1CCN(C2COC2)CC1` (stereo partly drawn) [Example 264, 2-[1-((S)-2,3-Dihydroxy-propionyl)-3,3-difluoro-4-methyl-piperidin-4-yloxy]-5-{2-[6-methoxy-5-(4-oxetan-3-yl-piperazin-1-yl)-pyridin-2-ylamino]-pyrimidin-4-yl}-benzonitrile], the IC50 at IKKε and at TBK1 was less than 100 nM in each case.
